One test has as its target T1, PLK-1 (Homo sapiens, UniProt P53350).
T1 construct: purchased Thermo Fisher Scientific (SelectScreen service)
As to the kind of experiment: PLK-1 Z-LYTE activity assay (SelectScreen). It counts as biochemical. Conditions: for fold decrease of PLK-1 activity/potency: relative to starting compound BI-2536.

The next test addresses T2, ALK^F1174L (Homo sapiens, UniProt Q9UM73, F1174L).
T2 construct: purchased Carna Biosciences
Nature of the test: LanthaScreen Eu kinase binding assay. In general terms: Time-resolved FRET reads energy transfer from a long-lived donor to a nearby acceptor.

In a further test the target is ALK WT (Homo sapiens, UniProt Q9UM73). Nature of the test: Biochemical ALK WT IC50. It counts as binding. Conditions: geometric mean.
Sequence of ALK WT (Q9UM73 19-1620): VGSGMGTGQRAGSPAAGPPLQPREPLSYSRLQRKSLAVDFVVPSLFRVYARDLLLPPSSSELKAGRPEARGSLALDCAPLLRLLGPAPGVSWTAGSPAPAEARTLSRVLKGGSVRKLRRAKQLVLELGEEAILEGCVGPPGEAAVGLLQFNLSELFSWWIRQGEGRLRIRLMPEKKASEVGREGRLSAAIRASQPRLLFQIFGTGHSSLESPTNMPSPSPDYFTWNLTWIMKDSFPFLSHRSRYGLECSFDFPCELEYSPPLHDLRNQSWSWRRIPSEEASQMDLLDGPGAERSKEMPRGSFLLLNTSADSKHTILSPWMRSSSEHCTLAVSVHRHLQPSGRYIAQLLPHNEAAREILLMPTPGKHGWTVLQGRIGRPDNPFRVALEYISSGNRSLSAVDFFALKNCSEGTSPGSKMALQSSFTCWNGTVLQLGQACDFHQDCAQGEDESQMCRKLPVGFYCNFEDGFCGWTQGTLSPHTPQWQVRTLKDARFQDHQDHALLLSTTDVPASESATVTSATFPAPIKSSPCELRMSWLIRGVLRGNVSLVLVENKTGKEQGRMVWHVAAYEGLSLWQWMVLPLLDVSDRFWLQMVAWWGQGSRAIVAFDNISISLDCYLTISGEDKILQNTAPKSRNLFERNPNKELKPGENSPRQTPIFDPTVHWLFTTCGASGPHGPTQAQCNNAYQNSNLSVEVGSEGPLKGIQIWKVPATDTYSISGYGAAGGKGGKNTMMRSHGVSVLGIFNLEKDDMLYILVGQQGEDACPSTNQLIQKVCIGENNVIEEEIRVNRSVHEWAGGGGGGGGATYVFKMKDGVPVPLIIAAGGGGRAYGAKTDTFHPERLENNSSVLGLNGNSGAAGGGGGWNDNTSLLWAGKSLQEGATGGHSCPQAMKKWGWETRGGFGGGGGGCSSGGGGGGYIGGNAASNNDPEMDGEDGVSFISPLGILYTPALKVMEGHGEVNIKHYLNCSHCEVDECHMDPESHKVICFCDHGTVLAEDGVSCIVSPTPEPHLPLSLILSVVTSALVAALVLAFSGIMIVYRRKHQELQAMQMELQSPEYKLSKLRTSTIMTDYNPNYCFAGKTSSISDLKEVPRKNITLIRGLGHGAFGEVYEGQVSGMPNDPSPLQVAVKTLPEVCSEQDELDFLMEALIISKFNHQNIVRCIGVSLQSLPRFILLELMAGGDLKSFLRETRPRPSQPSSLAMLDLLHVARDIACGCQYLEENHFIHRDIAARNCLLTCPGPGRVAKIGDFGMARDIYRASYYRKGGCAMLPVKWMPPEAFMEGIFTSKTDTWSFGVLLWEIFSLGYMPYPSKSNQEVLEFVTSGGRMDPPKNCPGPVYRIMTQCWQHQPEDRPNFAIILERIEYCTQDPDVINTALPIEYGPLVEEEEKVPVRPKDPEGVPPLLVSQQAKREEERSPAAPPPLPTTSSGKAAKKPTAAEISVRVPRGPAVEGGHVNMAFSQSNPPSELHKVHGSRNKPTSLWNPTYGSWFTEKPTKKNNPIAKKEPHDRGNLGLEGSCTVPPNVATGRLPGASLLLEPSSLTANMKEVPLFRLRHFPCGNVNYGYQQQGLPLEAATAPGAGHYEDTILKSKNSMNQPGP
The subject of another test is HeLa cells. As to the kind of experiment: Mitotic arrest and mitotic markers in HeLa cells (Western blot). It counts as cell-based. The conditions noted are these: HeLa cells, Western blot. The protocol:
Protein extracts of cells were prepared by lysis in radioimmunoprecipitation assay buffer (Sigma) supplemented with protease inhibitors (complete protease inhibitor cocktail, Roche). Protein extracts (25 μg) were separated by sodium dodecyl sulfate-polyacrylamide gel electrophoresis and transferred onto poly(vinylidene difluoride) membranes using the Trans-Blot Turbo transfer system (BioRad). After blocking with 5% bovine serum albumin in PBS with 0.1% Tween-20 for 30 min, the membrane was incubated with primary antibodies for 1 h at room temperature. Horseradish peroxidase-linked secondary antibodies were incubated 30 min at room temperature followed by enhanced chemiluminescence (ECL) detection (ECL Western blot substrate, Pierce).
Primary antibodies were obtained from the following sources: PLK-1 (05-844) and phosphohistone H3 (Ser10) (05806) from Millipore; pPlk1-T210 (5472) from Cell Signaling; pPlk1-S137 (21738) from Abcam; and cyclin B1 (GNS1) and β-actin (A2228) from Sigma-Aldrich served as loading control.

The values that follow come from article PMC6421522, “Designing Dual Inhibitors of Anaplastic Lymphoma Kinase (ALK) and Bromodomain-4 (BRD4) by Tuning Kinase Selectivity” (Journal of Medicinal Chemistry, 2019).

T1 sequence (P53350 whole entry): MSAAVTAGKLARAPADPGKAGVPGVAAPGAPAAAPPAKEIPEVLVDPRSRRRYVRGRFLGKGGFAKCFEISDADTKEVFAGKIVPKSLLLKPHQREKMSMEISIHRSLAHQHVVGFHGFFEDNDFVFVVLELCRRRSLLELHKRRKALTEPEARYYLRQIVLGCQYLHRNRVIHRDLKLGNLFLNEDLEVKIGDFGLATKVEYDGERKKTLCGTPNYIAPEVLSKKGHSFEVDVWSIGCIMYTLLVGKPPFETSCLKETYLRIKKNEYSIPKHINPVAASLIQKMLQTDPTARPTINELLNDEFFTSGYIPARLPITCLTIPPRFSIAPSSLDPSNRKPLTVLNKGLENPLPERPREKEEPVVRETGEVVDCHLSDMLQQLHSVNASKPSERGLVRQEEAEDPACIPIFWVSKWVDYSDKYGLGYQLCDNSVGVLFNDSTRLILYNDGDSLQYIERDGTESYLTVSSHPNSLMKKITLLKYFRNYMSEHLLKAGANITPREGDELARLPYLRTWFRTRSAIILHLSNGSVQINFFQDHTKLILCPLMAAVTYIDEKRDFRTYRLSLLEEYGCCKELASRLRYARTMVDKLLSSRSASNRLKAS
T2 sequence (Q9UM73 19-1620 F1174L): as the sequence (Q9UM73 19-1620) above, with F1156L counted along it

Turning to `CC[C@@H]1C(=O)N(C)c2cnc(Nc3ccc(C4CCN(C)CC4)cc3OC)nc2N1C1CCCC1` [16a, (R)-8-Cyclopentyl-7-ethyl-2-((2-methoxy-4-(1-methylpiperidin-4-yl)phenyl)amino)-5-methyl-7,8-dihydropteridin-6(5H)-one], the “fold decrease of PLK-1 activity/potency” value on PLK-1 is recorded as “four-fold”.
With `CCOc1cc(C(=O)NC2CCN(C)CC2)ccc1Nc1ncc2c(n1)N(C1CCCC1)CC(=O)N2C` [16e, 4-((8-Cyclopentyl-5-methyl-6-oxo-5,6,7,8-tetrahydropteridin-2-yl)amino)-3-ethoxy-N-(1-methylpiperidin-4-yl)benzamide], the “fold reduction of ALK^F1174L potency” value on ALK^F1174L (on removal of the (R)-Et group) came out at 3 fold.
In the case of `CCOc1cc(C(=O)NC2CCN(C)CC2)ccc1Nc1ncc2c(n1)N(Cc1cccc(Br)c1)[C@H](CC)C(=O)N2C` [16f, (R)-4-((8-(3-Bromobenzyl)-7-ethyl-5-methyl-6-oxo-5,6,7,8-tetrahydropteridin-2-yl)amino)-3-ethoxy-N-(1-methylpiperidin-4-yl)benzamide], the “fold decrease of PLK-1 activity/potency” value on PLK-1 is reported as 30–40 fold.
Regarding `CCOc1cc(C(=O)NC2CCN(C)CC2)ccc1Nc1ncc2c(n1)N(Cc1ccccc1)[C@H](CC)C(=O)N2C` [16g, (R)-4-((8-Benzyl-7-ethyl-5-methyl-6-oxo-5,6,7,8-tetrahydropteridin-2-yl)amino)-3-ethoxy-N-(1-methylpiperidin-4-yl)benzamide], the “fold decrease of PLK-1 activity/potency” value on PLK-1 is reported as 30–40 fold.
For `CCOc1cc(C2CCN(C)CC2)ccc1Nc1ncc2c(n1)N(Cc1cccc(Br)c1)[C@H](CC)C(=O)N2C` [16h, (R)-8-(3-Bromobenzyl)-2-((2-ethoxy-4-(1-methylpiperidin-4-yl)phenyl)amino)-7-ethyl-5-methyl-7,8-dihydropteridin-6(5H)-one], the “fold decrease of PLK-1 activity/potency” value on PLK-1 is 100–200 fold.
In the case of `CCOc1cc(C2CCN(C)CC2)ccc1Nc1ncc2c(n1)N(Cc1ccccc1)[C@H](CC)C(=O)N2C` [16i, (R)-8-Benzyl-2-((2-ethoxy-4-(1-methylpiperidin-4-yl)phenyl)amino)-7-ethyl-5-methyl-7,8-dihydropteridin-6(5H)-one], the “fold increase in ALK^F1174L potency” value at ALK^F1174L amounted to 2 fold. In addition, on ALK WT, the IC50 – broadly, the concentration needed to halve the response being measured – stood at 120 ± 11 nM. For the same compound, the “fold decrease of PLK-1 activity/potency” value on PLK-1 is listed as 100–200 fold.
Compound `CCOc1cc(C2CCN(C)CC2)ccc1Nc1ncc2c(n1)N(Cc1sccc1C)[C@H](CC)C(=O)N2C` [16j, (R)-2-((2-Ethoxy-4-(1-methylpiperidin-4-yl)phenyl)amino)-7-ethyl-5-methyl-8-((3-methylthiophen-2-yl)methyl)-7,8-dihydropteridin-6(5H)-one] registered an IC50 against ALK WT of 89 ± 4 nM.
Consider `CCOc1cc(C2CCN(C)CC2)ccc1Nc1ncc2c(n1)N(Cc1cccc(C#N)c1)[C@H](CC)C(=O)N2C` [23b, (R)-3-((2-((2-Ethoxy-4-(1-methylpiperidin-4-yl)phenyl)amino)-7-ethyl-5-methyl-6-oxo-6,7-dihydropteridin-8(5H)-yl)methyl)benzonitrile], for which the “ALK selectivity over PLK-1” value on PLK-1 (biochemical IC50s ALK^F1174L vs PLK-1) came out at 5 fold. In addition, the “fold decrease of PLK-1 activity/potency” value on PLK-1 is over 700 fold.
Regarding `CC[C@@H]1C(=O)N(C)c2cnc(Nc3ccc(C(=O)NC4CCN(C)CC4)cc3OC)nc2N1C1CCCC1` [BI-2536, reference compound], in the test with HeLa cells, the “concentration inducing mitotic arrest and increased PLK-1, cyclin B1, phosphohistone H3” value is at most 50 nM.
